Reference: ChEMBL document CHEMBL5576154, “Targeted suppression of oral squamous cell carcinoma by pyrimidine-tethered quinoxaline derivatives” (RSC Med Chem, 2024)

Columns and labels:
Pyruvate kinase PKM = Pyruvate kinase PKM (Homo sapiens, UniProt P14618); assay: Activation of PKM2 (unknown origin) by LDH enzyme coupled assay
[1] = Antiproliferative activity against OSCC (unknown origin); type: functional, cell-based; conditions: Oral cancer cell
CAL-27 [2] = assay: Cytotoxicity against human CAL-27 cells incubated for 24 hrs by Alamar blue assay; conditions: CAL-27, 24 h
[3] = Cytotoxicity against normal epithelial cells (unknown origin) incubated for 24 hrs by Alamar blue assay; type: toxicity, cell-based, Epithelial cell
CAL-27 [4] = assay: Induction of apoptosis in human CAL-27 cells assessed as viable cells at IC50 concentration incubated for 24 hrs by Annexin V-FITC/PI staining based flow cytometry analysis (reference value: 97.36%); type: functional
[5] = molecular target: Vascular endothelial growth factor receptor 2 (Homo sapiens, UniProt P35968); assay: Inhibition of human VEGFR2 by ELISA
Sequence of Vascular endothelial growth factor receptor 2 (P35968 whole entry): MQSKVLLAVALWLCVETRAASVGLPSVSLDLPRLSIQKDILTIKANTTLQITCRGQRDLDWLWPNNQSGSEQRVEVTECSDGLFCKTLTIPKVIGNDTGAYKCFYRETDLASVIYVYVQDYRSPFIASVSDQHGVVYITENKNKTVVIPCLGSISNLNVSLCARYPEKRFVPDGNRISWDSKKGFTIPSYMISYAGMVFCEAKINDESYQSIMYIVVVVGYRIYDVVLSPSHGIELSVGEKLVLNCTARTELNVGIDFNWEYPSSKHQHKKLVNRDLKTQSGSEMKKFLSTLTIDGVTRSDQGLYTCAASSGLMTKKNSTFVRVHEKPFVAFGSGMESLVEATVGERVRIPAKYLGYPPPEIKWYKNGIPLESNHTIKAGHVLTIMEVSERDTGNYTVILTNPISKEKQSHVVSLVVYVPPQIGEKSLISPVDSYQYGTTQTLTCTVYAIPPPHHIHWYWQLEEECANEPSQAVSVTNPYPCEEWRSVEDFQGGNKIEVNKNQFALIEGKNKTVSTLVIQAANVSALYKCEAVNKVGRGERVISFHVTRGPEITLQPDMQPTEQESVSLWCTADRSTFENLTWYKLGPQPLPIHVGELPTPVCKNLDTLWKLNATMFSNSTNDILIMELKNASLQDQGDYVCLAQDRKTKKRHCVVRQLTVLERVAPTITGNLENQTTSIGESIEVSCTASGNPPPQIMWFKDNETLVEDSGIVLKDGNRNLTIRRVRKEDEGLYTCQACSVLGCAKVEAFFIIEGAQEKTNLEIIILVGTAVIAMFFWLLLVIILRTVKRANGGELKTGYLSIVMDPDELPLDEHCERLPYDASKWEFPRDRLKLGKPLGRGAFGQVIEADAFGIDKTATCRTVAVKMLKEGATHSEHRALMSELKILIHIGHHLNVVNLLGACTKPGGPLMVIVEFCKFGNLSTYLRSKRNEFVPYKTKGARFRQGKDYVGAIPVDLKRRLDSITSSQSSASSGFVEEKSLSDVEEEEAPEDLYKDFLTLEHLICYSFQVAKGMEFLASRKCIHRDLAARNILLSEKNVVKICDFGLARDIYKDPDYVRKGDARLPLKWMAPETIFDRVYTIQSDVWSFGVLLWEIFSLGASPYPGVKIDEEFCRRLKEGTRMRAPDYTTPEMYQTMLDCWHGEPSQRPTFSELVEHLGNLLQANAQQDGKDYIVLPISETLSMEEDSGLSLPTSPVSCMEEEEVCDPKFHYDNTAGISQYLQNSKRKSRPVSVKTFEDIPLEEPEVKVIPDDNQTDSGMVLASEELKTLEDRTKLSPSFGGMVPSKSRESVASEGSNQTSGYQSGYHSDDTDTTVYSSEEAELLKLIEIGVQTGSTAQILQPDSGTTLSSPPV

Sequence of Pyruvate kinase PKM (P14618 whole entry): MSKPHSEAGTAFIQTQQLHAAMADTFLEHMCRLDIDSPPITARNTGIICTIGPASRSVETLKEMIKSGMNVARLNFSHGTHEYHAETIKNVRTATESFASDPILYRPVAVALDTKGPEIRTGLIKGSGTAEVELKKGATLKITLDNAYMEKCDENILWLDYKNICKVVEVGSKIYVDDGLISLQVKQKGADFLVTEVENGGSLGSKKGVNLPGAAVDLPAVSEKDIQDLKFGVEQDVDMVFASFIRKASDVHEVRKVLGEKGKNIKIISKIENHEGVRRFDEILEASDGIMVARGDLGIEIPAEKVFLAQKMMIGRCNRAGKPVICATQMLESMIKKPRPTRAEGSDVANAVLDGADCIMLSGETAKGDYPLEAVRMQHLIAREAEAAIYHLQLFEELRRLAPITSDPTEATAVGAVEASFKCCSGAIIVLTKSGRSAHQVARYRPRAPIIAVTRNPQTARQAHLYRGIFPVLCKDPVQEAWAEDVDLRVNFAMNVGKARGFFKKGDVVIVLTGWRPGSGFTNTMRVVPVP

SMILES | IC50 (CAL-27 [2]) [µM] | IC50 at 24 h [3] [µM] | further results
O=S(=O)(c1ccc2c(c1)OCCO2)N1CCN(S(=O)(=O)c2c(F)cccc2F)CC1 | – | – | EC50 (Pyruvate kinase PKM): 0.241 µM
COc1ccc(OC)c(C(=O)/C=C/c2ccc3nccnc3c2)c1 | – | – | IC50 [1]: 7.81 µM
Clc1cc2ncc(-c3cnc4ncccn34)nc2cc1Cl | 25.3 | 15.8 | –
O=C(c1ccccc1)c1ccc2ncc(-c3cnc4ccccn34)nc2c1 | 14.6 | 24.9 | –
c1ccc2nc(-c3cnc4ccccn34)cnc2c1 | > 100 | – | –
FC(F)(F)c1ccc(-c2ccn3c(-c4cnc5ccccc5n4)cnc3n2)cc1 | > 100 | – | –
Cc1ccc(-c2ccn3c(-c4cnc5ccccc5n4)cnc3n2)cc1 | 64.8 | – | –
c1ccc2nc(-c3cnc4ncccn34)cnc2c1 | > 100 | – | –
CS(=O)(=O)c1ccc(-c2ccn3c(-c4cnc5ccccc5n4)cnc3n2)cc1 | > 100 | – | –
Brc1ccc2ncc(-c3cnc4ncccn34)nc2c1 | 21.6 | 15.2 | –
Clc1ccc(-c2ccn3c(-c4cnc5ccccc5n4)cnc3n2)cc1 | – | – | Activity (CAL-27 [4]): 79.07%
Clc1ccc2ncc(-c3cnc4ncccn34)nc2c1 | > 100 | – | –
Clc1ccc2ncc(-c3cnc4ccccn34)nc2c1 | 12.8 | 19.2 | –
Cc1nc2ccccc2n(CC(=O)Nc2ccc(C(=O)Nc3cccc(Cl)c3)cc2)c1=O | – | – | IC50 [5]: 0.0027 µM
Clc1ccccc1-c1ccn2c(-c3cnc4ccccc4n3)cnc2n1 | 13.7 | 133 | –
O=C(c1ccccc1)c1ccc2ncc(-c3cnc4ncccn34)nc2c1 | 17 | 16.7 | –
Cc1ccc2ncc(-c3cnc4ccccn34)nc2c1 | 18.5 | 22.5 | –
O=[N+]([O-])c1ccc2ncc(-c3cnc4ccccn34)nc2c1 | 27.2 | 20.8 | –
c1ccc(-c2ccn3c(-c4cnc5ccccc5n4)cnc3n2)cc1 | 10.3 | 47.5 | –
Fc1ccc(-c2ccn3c(-c4cnc5ccccc5n4)cnc3n2)cc1 | > 100 | – | –
Fc1ccccc1-c1ccn2c(-c3cnc4ccccc4n3)cnc2n1 | > 100 | – | –
Fc1ccc2ncc(-c3cnc4ncccn34)nc2c1 | > 100 | – | –
Clc1ccc(-c2ccn3c(-c4cnc5ccccc5n4)cnc3n2)c(Cl)c1 | > 100 | – | –
Fc1ccc2ncc(-c3cnc4ccccn34)nc2c1 | > 100 | – | –
Clc1cc2ncc(-c3cnc4ccccn34)nc2cc1Cl | 15.1 | 23.9 | –
Brc1ccc2ncc(-c3cnc4ccccn34)nc2c1 | 16 | 20.9 | –
O=[N+]([O-])c1ccc2ncc(-c3cnc4ncccn34)nc2c1 | 19.7 | 18.3 | –
Cc1ccc2ncc(-c3cnc4n3C=C=C=N4)nc2c1 | > 100 | – | –
